# Data from PubChem BioAssay (NCI).
# Where “and” joins values, the source holds several entries; their conditions need not be identical. Equal entries are not always repeated.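 These data come from cells grown in 96-well plates and exposed to compound for 48 hours at five concentrations. GI50 is the concentration that inhibits growth by half. TGI denotes the concentration required for complete inhibition of growth.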 Where a SMILES comes first, the peptide text is derived from it. Bridges are numbered along the chain shown (N, C = ends). [ ]: non-standard residue; d: D form. The star is where a group is joined. Fmoc = O=C(OCC1c2ccccc2-c2ccccc21)*; Aib = CC(C)(N)C(=O)O; OtBu = CC(C)(C)O*; βAla = NCCC(=O)O
# How the values were obtained:
# Assay in all cases: NCI-60 cell line screen, 48 h
# [1] = tested on: A549 NSCLC
# [2] = tested on: CCRF-CEM leukemia
# [3] = tested on: LOX IMVI melanoma
# [4] = tested on: MALME-3M melanoma
# [5] = tested on: MCF7 breast
# [6] = tested on: MOLT-4 leukemia
# [7] = tested on: NCI-H460 lung
# [8] = tested on: SK-MEL-2 melanoma
# [9] = tested on: SN12C renal
# [10] = tested on: SW-620 colon
# [11] = tested on: UO-31 renal
# [12] = tested on: HCC-2998 colon
Compound,TGI [1],TGI [2],TGI [3],TGI [4],TGI [5],TGI [6],TGI [7],TGI [8],TGI [9],TGI [10],TGI [11],GI50 [2],TGI [12],GI50 [4],GI50 [7],GI50 [11]
COc1ccc(S(=O)(=O)N2C(=O)CCC2C(=O)NC(N)=O)cc1 (stereo unspecified),> 100 µM,> 100 µM,> 100 µM,> 100 µM,> 100 µM,> 100 µM,> 100 µM,> 100 µM,> 100 µM,> 100 µM,> 100 µM,,,,,
CSc1nc(-c2ccc(Cl)cc2)c(C#N)c(=O)n1C1OC(COC(C)=O)C(OC(C)=O)C(OC(C)=O)C1OC(C)=O (stereo unspecified),> 100 µM,> 100 µM,,> 100 µM,,> 100 µM,> 100 µM,> 100 µM,> 100 µM,> 100 µM,23.5 µM and > 100 µM,> 7.5 µM and 65.1 µM,> 100 µM,30.7 µM and 77.8 µM,27.3 µM and > 100 µM,10.4 µM and > 100 µM
CC1=C(C(=O)OC2CC3CCC2(C)C3(C)C)C2Nc3ccccc3N(C)C2O1 (stereo unspecified),4.53 µM,7.07 µM,6.12 µM,,,6.69 µM,3.7 µM,7.9 µM,4.25 µM,6.99 µM,7.19 µM,,3.91 µM,,,
Cc1ccc2c(c1)C(=C(C#N)C#N)CCCS2(=O)=O,> 100 µM,> 100 µM,> 100 µM,,,> 100 µM,> 100 µM,> 100 µM,> 100 µM,> 100 µM,> 100 µM,,> 100 µM,,,
CN1C(=O)C2(C)SC1(c1ccccc1)C1C(=O)N(c3ccccc3)C(=O)C12 (stereo unspecified),> 100 µM,,> 100 µM,> 100 µM,> 100 µM,> 100 µM,,> 100 µM,> 100 µM,> 100 µM,> 100 µM,,,,,
COc1ccc(CNc2cnc3cc(N)ccc3n2)cc1,> 100 µM,> 100 µM,> 100 µM,> 100 µM,,> 100 µM,> 100 µM,> 100 µM,> 100 µM,> 100 µM,> 100 µM,,> 100 µM,,,
N#CC12C(=O)NC(=O)C1(C#N)C1C=CC2CC1 (stereo unspecified),> 100 µM,> 100 µM,> 100 µM,> 100 µM,> 100 µM,> 100 µM,,,> 100 µM,> 100 µM,> 100 µM,,,,,
CCOc1cc(C2CC(c3ccc(NS(=O)(=O)c4cc([N+](=O)[O-])ccc4C)cc3)=NN2S(=O)(=O)c2cc([N+](=O)[O-])ccc2C)ccc1O (stereo unspecified),> 100 µM,> 100 µM,> 100 µM,> 100 µM,> 100 µM,> 100 µM,,62 µM,81.3 µM,> 100 µM,> 100 µM,,,,,
N#CC12C(=O)N3C(=NC(c4ccco4)NC3c3ccco3)C1(C#N)C(c1ccco1)NC1=C2CCCC1 (stereo unspecified),> 100 µM,,> 100 µM,> 100 µM,> 100 µM,> 100 µM,> 100 µM,> 100 µM,> 100 µM,> 100 µM,> 100 µM,,> 100 µM,,,
FC1(F)[Se]C2C3CCC(C3)C2C1(F)F (stereo unspecified),> 100 µM,,> 100 µM,> 100 µM,> 100 µM,> 100 µM,> 100 µM,> 100 µM,> 100 µM,> 100 µM,> 100 µM,,> 100 µM,,,
CC(=O)Nc1ccc2c3c(cc(O)c2c1)N(C(=O)CCCC(=O)N1CC(CCl)c2c1cc(O)c1cc(NC(C)=O)ccc21)CC3CCl (stereo unspecified),,< 0.01 µM,> 100 µM,0.0318 µM,,,> 100 µM,< 0.0152 µM,> 100 µM,> 100 µM,0.0604 µM,,,,,
C=CC(=O)Nc1ccc(NC(=O)C=C)c2c1C(=O)c1ccccc1C2=O,> 100 µM,,47.4 µM,> 100 µM,57.4 µM,96.4 µM,> 100 µM,> 100 µM,> 100 µM,> 100 µM,> 100 µM,,> 100 µM,,,
C=C(C)C12CC3CC(/C(=N/O)C(C1)/C3=N\O)[C@@]2(C)O (stereo partly specified),> 100 µM,> 100 µM,> 100 µM,> 100 µM,,> 100 µM,> 100 µM,> 100 µM,> 100 µM,> 100 µM,> 100 µM,,> 100 µM,,,
CC(=O)O[C@@H]1C[C@]2(C(=O)c3ccccc3)C(=O)C(=O)S[C@]12c1ccccc1,> 100 µM,,> 100 µM,> 100 µM,> 100 µM,> 100 µM,> 100 µM,> 100 µM,> 100 µM,> 100 µM,> 100 µM,,75.1 µM,,,
CSC1=N/C(=C\c2ccc(Cl)cc2)C(=O)N1CN1CCCCC1,> 100 µM,> 100 µM,> 100 µM,91.7 µM,82.8 µM,> 100 µM,,> 100 µM,> 100 µM,> 100 µM,> 100 µM,,,,,
COc1ccc(C2SC(N)=Nc3c2c(C)nn3C(=O)c2ccccc2O)cc1OC (stereo unspecified),> 10 µM,> 10 µM,> 10 µM,> 10 µM,> 10 µM,> 10 µM,> 10 µM,> 10 µM,> 10 µM,> 10 µM,> 10 µM,,,,,
CC(/C=C/C(=O)NO)=C\C(C)C(=O)c1ccc(N(C)C)cc1 (stereo unspecified),0.0814 µM,,,0.0239 µM,> 100 µM,,0.0658 µM,0.778 µM,0.206 µM,29.8 µM,0.262 µM,,< 0.0113 µM,,,
OC12c3ccccc3C1CCCCC2N1CCCC1 (stereo unspecified),> 100 µM,> 100 µM,> 100 µM,> 100 µM,,> 100 µM,> 100 µM,> 100 µM,> 100 µM,> 100 µM,> 100 µM,,,,,
CC1(C)NC(=O)C(NC(=O)C(N)CC(=O)O)CCCCNC(=O)CCNC1=O (stereo unspecified) (H-DK[Aib][βAla]; lactam 2-C; configuration not given here),> 100 µM,> 100 µM,> 100 µM,> 100 µM,> 100 µM,> 100 µM,> 100 µM,> 100 µM,,> 100 µM,> 100 µM,,,,,
CSc1ncnc2c1ncn2CCC(=O)O,> 100 µM,> 100 µM,> 100 µM,> 100 µM,> 100 µM,> 100 µM,> 100 µM,,> 100 µM,> 100 µM,> 100 µM,,,,,
C=C(Cl)C(Cl)(CBr)CCC(Br)C(C)(C)Br (stereo unspecified),16.3 µM,23.5 µM,33.3 µM,29.6 µM,3.34 µM,25.3 µM,3.71 µM,,19.7 µM,8.32 µM,20.1 µM,,19.9 µM,,,
Nc1nc(Cl)cc(NCC2(O)CCC2)n1,> 100 µM,,> 100 µM,> 100 µM,> 100 µM,> 100 µM,> 100 µM,> 100 µM,> 100 µM,> 100 µM,> 100 µM,,> 100 µM,,,
CC(=O)OC[C@H]1CN(OC(C)=O)C[C@@H](n2cc(C)c(=O)[nH]c2=O)O1,> 100 µM,,,,> 100 µM,> 100 µM,> 100 µM,> 100 µM,> 100 µM,> 100 µM,> 100 µM,,> 100 µM,,,
CC(C)C(NC(=O)OCC1c2ccccc2-c2ccccc21)C(=O)NC(CCC(=O)OC(C)(C)C)C(=O)OC(C)(C)C (stereo unspecified) (Fmoc-Val-Glu(OtBu)-OtBu; configuration not given here),> 100 µM,> 100 µM,> 100 µM,> 100 µM,> 100 µM,> 100 µM,> 100 µM,,> 31.6 µM,> 100 µM,> 100 µM,,> 100 µM,,,
O=C(Nc1ccccc1)c1cc(S(=O)(=O)Nc2n[nH]c(=O)n2-c2ccccc2)c(S)cc1Cl,> 100 µM,,> 100 µM,> 100 µM,> 100 µM,> 100 µM,> 100 µM,> 100 µM,> 100 µM,> 100 µM,> 100 µM,,> 100 µM,,,
CC1CC(N)=C(C#N)C1(C#N)C#N (stereo unspecified),> 100 µM,,> 100 µM,> 100 µM,> 100 µM,> 100 µM,,> 100 µM,> 100 µM,> 100 µM,> 100 µM,,> 100 µM,,,
COc1ccccc1Nc1nc2c([nH]1)c(=O)n(C)c(=O)n2C,> 10 µM,> 10 µM,> 10 µM,> 10 µM,> 10 µM,> 10 µM,,,> 10 µM,> 10 µM,,,> 10 µM,,,
O=C(Nc1ccc(C(F)(F)F)cc1)NC(F)(F)F,> 100 µM,> 100 µM,> 100 µM,,,> 100 µM,,> 100 µM,> 100 µM,> 100 µM,> 100 µM,,> 100 µM,,,
CC(=O)OCCn1cnc2c(NCC=C(C)C)ncnc21,> 100 µM,> 100 µM,> 100 µM,> 100 µM,> 100 µM,> 100 µM,> 100 µM,,> 100 µM,> 100 µM,> 100 µM,,,,,
O=c1oc2ccc3ccccc3c2cc1-c1nnc(Nc2ccccc2)s1,59 µM,,,,> 100 µM,> 100 µM,42.3 µM,34.7 µM,> 100 µM,,39.4 µM,,> 100 µM,,,
